Here are results for 57 molecules from the supplement of paper PMC6206229.

Converted amounts (≈) assume the structure as drawn.

The subject of assay [1] is Staphylococcus aureus ATCC 700699 (MRSA). Put plainly: minimum inhibitory concentration; extreme values may be limits of the assay. Summed up: (§1)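 The minimum inhibitory concentration was defined as the lowest concentration whose well remained blue rather than becoming pink. It was measured against methicillin-susceptible and methicillin-resistant Staphylococcus aureus by broth microdilution in 96-well plates according to CLSI guidance, with compounds at 0 to 100 µM incubated for 24 h at 37°C before 30 µl of 0.015% resazurin was added for 2–4 h. Each plate included positive controls.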

For assay [2], the system named is Staphylococcus aureus ATCC 29213 (MSSA). Described as above. The gist of the method: as §1

As for `O=S(=O)(c1ccc(Cl)cc1)N1CCN(C(=S)NCc2ccco2)CC1`, the minimum inhibitory concentration in assay [1] and in assay [2] was greater than 50 µM each time.

As for `O=C(c1cc2ccccc2o1)N1CCN(Cc2ccc3c(c2)OCO3)CC1`, the minimum inhibitory concentration in assay [1] and in assay [2] was greater than 50 µM throughout.

With `CNC(=O)CNc1nc(-c2ccccn2)nc2scc(-c3ccccc3)c12`, the minimum inhibitory concentration in assay [1] and in assay [2] was greater than 50 µM in each case.

For `COC(=O)c1c(NC(=O)c2c(F)c(F)c(F)c(F)c2F)sc2c1CCCCC2`, the minimum inhibitory concentration in assay [1] and in assay [2] was greater than 50 µM in each case.

As to `CCc1ccc([C@@H]2C[C@H](C(F)(F)F)n3ncc(C(=O)NCc4ccc(OC)cc4)c3N2)cc1`, the minimum inhibitory concentration in assay [1] and in assay [2] was greater than 50 µM each time.

On to `COC(=O)C1=C(C)NC(C)=C(C(=O)OC(C)C)C1c1cccc2nonc12` (centres undefined), for which the minimum inhibitory concentration in assay [1] and in assay [2] was greater than 50 µM in each case.

Take `O=C(c1[nH]nc2c1CCCC2)N1CCN(Cc2ccc3c(c2)OCO3)CC1`: the minimum inhibitory concentration in assay [1] and in assay [2] was greater than 50 µM in each case.

Consider `Cc1nnc(NC(=O)c2cn(-c3ccccc3)nc2-c2ccccc2C)o1`, for which the minimum inhibitory concentration in assay [1] and in assay [2] was greater than 50 µM throughout.

With `CCCn1c(NC(=O)c2ccc3ccccc3n2)nc2ccccc21`, the minimum inhibitory concentration in assay [1] and in assay [2] was greater than 50 µM each time.

In the case of `CNCCC(Oc1ccc(C(F)(F)F)cc1)c1ccccc1` (centres undefined), the minimum inhibitory concentration in assay [1] and in assay [2] was greater than 50 µM throughout.

Consider `Brc1c(-c2ccc3c(c2)OCO3)nc2ncccn12`, for which the minimum inhibitory concentration in assay [1] and in assay [2] was greater than 50 µM throughout.

For the molecule `C[C@H](C(N)=O)N1CCCC[C@@H]1c1ccc(OCc2cccc(F)c2)cc1`, the minimum inhibitory concentration in assay [1] and in assay [2] was greater than 50 µM each time.

`O[C@@H](c1cc(C(F)(F)F)nc2c(C(F)(F)F)cccc12)[C@H]1CCCCN1`: the minimum inhibitory concentration amounted to 25 µM (≈ 9.46 µg/mL) in assay [1] and 50 µM (≈ 18.9 µg/mL) in assay [2].

With `O=C(OCc1ccccc1)N1CCC(c2cc(-c3ccncc3)c(-c3ccc(F)cc3)[nH]2)CC1`, the minimum inhibitory concentration in assay [1] and in assay [2] was greater than 50 µM throughout.

As for `O=C(C1CCN(c2nnc(-n3cccc3)s2)CC1)N1CCC(Cc2ccccc2)CC1`, the minimum inhibitory concentration in assay [1] and in assay [2] was greater than 50 µM each time.

For `CC1COC2(CCN(c3nc(=O)c4cc(C(F)(F)F)cc([N+](=O)[O-])c4s3)CC2)O1` (centres undefined), the minimum inhibitory concentration in assay [1] and in assay [2] was greater than 50 µM in each case.

Consider `CO[C@@H](C(=O)N1Cc2[nH]nc(NC(=O)c3ccc(N4CCN(C)CC4)cc3)c2C1)c1ccccc1`, for which the minimum inhibitory concentration in assay [1] and in assay [2] was greater than 50 µM in each case.

Consider `CC(C)C(C(=O)Nc1ccc(S(=O)(=O)N(C)C)cc1)c1ccc(Cl)cc1` (centres undefined), for which the minimum inhibitory concentration in assay [1] and in assay [2] was greater than 50 µM in each case.

With `FC(F)(F)c1cnc(Sc2nnc(-c3ccncc3)o2)c(Cl)c1`, the minimum inhibitory concentration in assay [1] and in assay [2] was greater than 50 µM throughout.

`CC(C)C(Oc1cccc2ccccc12)C(=O)O` (centres undefined): the minimum inhibitory concentration in assay [1] and in assay [2] was greater than 50 µM in each case.

On to `c1cc(C2=NCCN2)cc(-c2cc(-c3ccc(C4=NCCN4)cc3)no2)c1`, for which the minimum inhibitory concentration in assay [1] and in assay [2] was greater than 50 µM throughout.

In the case of `CCC(Sc1nc2ccccc2o1)C(=O)Nc1nnc(C)s1` (centres undefined), the minimum inhibitory concentration in assay [1] and in assay [2] was 50 µM (≈ 16.7 µg/mL) in each case.

Turning to `Brc1cncc(-c2cc(NCCCn3ccnc3)nc(-c3ccccc3)n2)c1`, the minimum inhibitory concentration in assay [1] and in assay [2] was greater than 50 µM each time.

As to `COc1cc(C2=NCCN2)ccc1-n1cc(-c2cccc(C3=NCCN3)c2)nn1`, the minimum inhibitory concentration in assay [1] and in assay [2] was greater than 50 µM each time.

For `CC(C)(C)C(O)C(Oc1ccc(-c2ccccc2)cc1)n1cncn1` (centres undefined), the minimum inhibitory concentration in assay [1] and in assay [2] was greater than 50 µM throughout.

As for `Cc1nn2c(O)c3c(nc2c1-c1ccc(F)cc1)CCCC3`, the minimum inhibitory concentration in assay [1] and in assay [2] was greater than 50 µM each time.

With `Cc1noc(C)c1C(=O)N1CCCC(c2[nH]c3c(C)cccc3c2-c2ccncc2)C1` (centres undefined), the minimum inhibitory concentration in assay [1] and in assay [2] was greater than 50 µM each time.

On to `CCCCCCCCCCCCCCCCOP(=O)([O-])OCC[N+](C)(C)C`, for which the minimum inhibitory concentration in assay [1] and in assay [2] was greater than 50 µM in each case.

`CC(C(=O)Nc1ccc2oc(-c3ccncc3)nc2c1)c1ccccc1` (centres undefined): the minimum inhibitory concentration in assay [1] and in assay [2] was greater than 50 µM each time.

For `Cc1cc(C)cc(COc2ccc3c(C)c(CCC(=O)O)c(=O)oc3c2C)c1`, the minimum inhibitory concentration in assay [1] and in assay [2] was greater than 50 µM each time.

Consider `O=C(NC1CC1)c1ccc(N2CCC(Cc3ccccc3)CC2)nc1`, for which the minimum inhibitory concentration in assay [1] and in assay [2] was greater than 50 µM in each case.

`CO[C@H]1/C=C\O[C@@]2(C)Oc3c(C)c(O)c4c(O)c(/c(=C/NN5CCN(C)CC5)c(O)c4c3C2=O)=N\C(=O)/C(C)=C\C=C/[C@H](C)[C@H](O)[C@@H](C)[C@@H](O)[C@@H](C)[C@H](OC(C)=O)[C@@H]1C`: the values for the minimum inhibitory concentration in assay [1] and in assay [2] were 50 µM (≈ 41.1 µg/mL) and 0.09 µM (≈ 0.0741 µg/mL), respectively.

As for `CC(C(=O)N1CCCC1)N1CCN(S(=O)(=O)c2ccc(C(C)(C)C)cc2)CC1` (centres undefined), the minimum inhibitory concentration in assay [1] and in assay [2] was greater than 50 µM throughout.

Consider `O=C(c1ccco1)N(CCCn1ccnc1)c1nc2c(Cl)cccc2s1`, for which the minimum inhibitory concentration in assay [1] and in assay [2] was greater than 50 µM throughout.

For the molecule `CC(C)/N=c1\cc2n(-c3ccc(Cl)cc3)c3ccccc3nc-2cc1Nc1ccc(Cl)cc1`, the minimum inhibitory concentration in assay [1] and in assay [2] was greater than 50 µM in each case.

With `CN1CCN(S(=O)(=O)c2ccc(-c3ccc4c(Nc5ccc6nn[nH]c6c5)ccnc4c3)cc2)CC1`, the minimum inhibitory concentration in assay [1] and in assay [2] was greater than 50 µM throughout.

For `CCc1ccccc1-n1c(C)cn2c3c(=O)n(C(C(=O)OC)C(C)C)c(=O)n(C)c3nc12` (centres undefined), the minimum inhibitory concentration in assay [1] and in assay [2] was greater than 50 µM each time.

In the case of `O=C(Nc1ccnc(-c2cccnc2)n1)c1cc(C(F)(F)F)cc(C(F)(F)F)c1`, the minimum inhibitory concentration in assay [1] and in assay [2] was greater than 50 µM throughout.

As to `Nc1nc(N)c2c3c(sc2n1)CN(Cc1ccccc1)CC3`, the minimum inhibitory concentration in assay [1] and in assay [2] was greater than 50 µM each time.

Take `COc1ccc(C(=N)N)cc1-c1cn(-c2ccc(C(=N)N)cc2)nn1`: the minimum inhibitory concentration in assay [1] and in assay [2] was greater than 50 µM each time.

As to `Cc1nc2ccccn2c1C(=O)NCc1ccc(Cl)cc1`, the minimum inhibitory concentration in assay [1] and in assay [2] was greater than 50 µM throughout.

With `COc1cccc(NC(=O)c2c(NC(=O)c3cccnc3)sc3c2CCC3)c1`, the minimum inhibitory concentration in assay [1] and in assay [2] was greater than 50 µM throughout.

As to `COc1cncc(-c2cncc(N3CCN(c4ccncc4)CC3)n2)c1`, the minimum inhibitory concentration in assay [1] and in assay [2] was greater than 50 µM in each case.

`O=C(CCC1CCCCC1)Nc1cccc(-c2nnc(-c3ccco3)o2)c1`: the minimum inhibitory concentration in assay [1] and in assay [2] was greater than 50 µM throughout.

For the molecule `CC(=O)NCC1CN(c2ccc(-c3ccc(CNCc4cn[nH]n4)cc3)c(F)c2)C(=O)O1` (centres undefined), the minimum inhibitory concentration in assay [1] and in assay [2] was 6.25 µM (≈ 2.74 µg/mL) throughout.

Regarding `CC(C)(C)n1nc(Cc2cccc3ccccc23)c2c(N)ncnc21`, the minimum inhibitory concentration in assay [1] and in assay [2] was greater than 50 µM throughout.

As for `Cc1cc(C)n(-c2ccc(NC(=O)C3CCN(Cc4cnc(C)s4)CC3)cc2)n1`, the minimum inhibitory concentration in assay [1] and in assay [2] was greater than 50 µM in each case.

Turning to `CCCCOC(=O)Nc1cc2nc(C3CCCCC3)[nH]c2cc1N1CCCC1`, the minimum inhibitory concentration in assay [1] and in assay [2] was greater than 50 µM in each case.

On to `Cc1cc(NC(=O)c2ccc(Oc3ccc(Cl)cc3O)o2)no1`, for which the minimum inhibitory concentration in assay [1] was 50 µM (≈ 16.7 µg/mL); in assay [2] it was greater than 50 µM.

`CC(C)c1ncc(-c2ccncc2)c([C@H]2CC[C@H](CNC(=O)c3cccnc3)CC2)n1`: the minimum inhibitory concentration in assay [1] and in assay [2] was greater than 50 µM in each case.

As for `O=C(Nc1nc(-c2ccccn2)cs1)c1cncn1-c1ccccc1`, the minimum inhibitory concentration in assay [1] and in assay [2] was greater than 50 µM each time.

As for `CC1=Nc2ccc(Cl)cc2C(c2ccccc2)N1CCNC(=O)CN(C)C` (centres undefined), the minimum inhibitory concentration in assay [1] and in assay [2] was greater than 50 µM throughout.

`COc1ccc(N(CCc2cccc(C)n2)C(C)=O)cc1`: the minimum inhibitory concentration in assay [1] and in assay [2] was greater than 50 µM throughout.

As to `c1ccc(-c2[nH]c3ccccc3c2C(c2ccccn2)N2CCCC2)cc1` (centres undefined), the minimum inhibitory concentration in assay [1] and in assay [2] was greater than 50 µM in each case.

With `CC(C)(C)n1nc(Cc2ccc(F)c(Cl)c2)c2c(N)ncnc21`, the minimum inhibitory concentration in assay [1] and in assay [2] was greater than 50 µM throughout.

In the case of `Cc1cc2nc(NC(=O)C(C)(C)C)nc(Cl)c2n1Cc1ccc(Cl)cc1`, the minimum inhibitory concentration in assay [1] and in assay [2] was greater than 50 µM throughout.

In the case of `Cc1ccc2oc(-c3cc(NC(=O)Cc4ccccc4)ccc3Cl)nc2c1`, the minimum inhibitory concentration in assay [1] and in assay [2] was greater than 50 µM in each case.
